# Experimental data published in ChEMBL document CHEMBL1201862, “PubChem BioAssay data set” (2004).
#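 Interpolation was linear, between the two tested concentrations surrounding the appropriate level; five concentrations were tested over 48 hours in 96-well plates. GI50 marks 50% less growth.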 Activity calls are given as the source filed them. Rule as the data show it: active = GI50 up to about 1.1 µM and inactive = higher.
# Columns and labels:
# Experiment in all cases: growth of human tumour cells (NCI), 48 h
# 786-0 = tested on: 786-0
# CCRF-CEM = tested on: CCRF-CEM
# DU-145 = tested on: DU-145
# HCT-15 = tested on: HCT-15
# HOP-62 = tested on: HOP-62
# Hs-578T = tested on: Hs-578T
# KM12 = tested on: KM12
# MCF7 = tested on: MCF7
# MOLT-4 = tested on: MOLT-4
# Malme-3M = tested on: Malme-3M
# NCI-H23 = tested on: NCI-H23
# NCI-H522 = tested on: NCI-H522
# NCI/ADR-RES = tested on: NCI/ADR-RES
# PC-3 = tested on: PC-3
# SF-268 = tested on: SF-268
# SNB-19 = tested on: SNB-19
# SW-620 = tested on: SW-620
# TK-10 = tested on: TK-10
# UACC-62 = tested on: UACC-62
# UO-31 = tested on: UO-31
Structure (SMILES),GI50 (786-0),GI50 (CCRF-CEM),GI50 (DU-145),GI50 (HCT-15) [µM],GI50 (HOP-62),GI50 (Hs-578T),GI50 (KM12),GI50 (MCF7),GI50 (MOLT-4),GI50 (Malme-3M),GI50 (NCI-H23),GI50 (NCI-H522),GI50 (NCI/ADR-RES),GI50 (PC-3),GI50 (SF-268),GI50 (SNB-19),GI50 (SW-620),GI50 (TK-10),GI50 (UACC-62),GI50 (UO-31)
CN1Cc2c(ccc3c2OCO3)[C@@H]2[C@H](O)Cc3cc4c(cc3[C@@H]21)OCO4,4.09 µM (inactive),2.82 µM (inactive),4.4 µM (inactive),2.02,3.09 µM (inactive),3.59 µM (inactive),2.48 µM (inactive),2.11 µM (inactive),3.08 µM (inactive),4.63 µM (inactive),3.31 µM (inactive),2.92 µM (inactive),2.35 µM (inactive),2.66 µM (inactive),4.82 µM (inactive),3.41 µM (inactive),3.62 µM (inactive),5.46 µM (inactive),3.05 µM (inactive),6.28 µM (inactive)
Cn1c(CC(O)c2nc3ccccc3n2C)nc2ccccc21 (stereo not given),> 44.6 µM (inactive),2.65 µM (inactive),> 14.6 µM (inactive),> 16,> 12.3 µM (inactive),> 14.5 µM (inactive),> 100 µM (inactive),> 15.9 µM (inactive),> 13.7 µM (inactive),> 21.1 µM (inactive),> 17.6 µM (inactive),> 6.1 µM (inactive),29.9 µM (inactive),> 29.2 µM (inactive),> 16.2 µM (inactive),> 36.6 µM (inactive),> 16 µM (inactive),> 25.1 µM (inactive),> 34.8 µM (inactive),> 6.37 µM (inactive)
C=C(C)[C@@]1(O[Si](C)(C)C)CCCC[C@@H]1CC(Sc1ccccc1)Sc1ccccc1,14.6 µM (inactive),14.4 µM (inactive),15 µM (inactive),12.3,13.8 µM (inactive),13.4 µM (inactive),10.6 µM (inactive),12 µM (inactive),4.89 µM (inactive),12.1 µM (inactive),13.4 µM (inactive),7.83 µM (inactive),13.8 µM (inactive),13.2 µM (inactive),14.8 µM (inactive),16.4 µM (inactive),14.1 µM (inactive),15.4 µM (inactive),13.2 µM (inactive),13.8 µM (inactive)
Cc1ccc(-c2cn3c(nc4ccccc43)c(-c3ccccc3)n2)cc1,15.1 µM (inactive),> 100 µM (inactive),> 100 µM (inactive),> 100,15.6 µM (inactive),15.3 µM (inactive),> 100 µM (inactive),27.7 µM (inactive),> 100 µM (inactive),> 83 µM (inactive),24 µM (inactive),20.5 µM (inactive),47.9 µM (inactive),> 100 µM (inactive),> 45.3 µM (inactive),16.7 µM (inactive),> 100 µM (inactive),27.5 µM (inactive),22.4 µM (inactive),> 49.1 µM (inactive)
